Laboratory results as given in ChEMBL document CHEMBL3046101, “Synthesis and Biological Activity of 1,2-Dithiolanes and 1,2-Dithianes Bearing a Nitrogen-containing Substituent” (1992).

What was measured:
Format in all cases: functional
[1] = tested on: Tetranychus urticae; test: Acaricidal activity against Tetranychus urticae (two-spotted spider mite) assessed as mortality at 500 ppm
[2] = tested on: Chilo suppressalis; test: Insecticidal activity against Chilo suppressalis (rice stem borer) assessed as mortality compound administered as topical application
[3] = tested on: Chilo suppressalis; test: Insecticidal activity against Chilo suppressalis (rice stem borer) assessed as mortality at 50 ug/g administered as topical application
[4] = tested on: Spodoptera litura; test: Insecticidal activity against Spodoptera litura assessed as mortality at 500 ppm
[5] = tested on: Culex pipiens molestus; test: Insecticidal activity against Culex pipiens molestus assessed as mortality at 5 ppm
[6] = tested on: Nilaparvata lugens; test: Insecticidal activity against Nilaparvata lugens (brown planthopper) assessed as mortality at 50 ppm
[7] = tested on: Tetranychus urticae; test: Acaricidal activity against Tetranychus urticae (two-spotted spider mite) assessed as mortality

Row | SMILES | mortality at 500 ppm [1] [%] | LD50 [2] [mg/kg] | mortality [3] [%] | mortality at 500 ppm [4] [%] | mortality at 5 ppm [5] [%] | mortality at 50 ppm [6] [%] | LC50 [7] [µg/mL]
1 | CN(C)CC1CCSS1.O=C(O)C(=O)O (stereo not drawn) | 100 | 4.3 | 100 | 30 | 100 | 80 | 
2 | CN(C)CC1CSSC1.O=C(O)C(=O)O | 100 |  | 100 | 90 | 100 | 100 | 88
3 | CN(C)CC1CCCSS1.O=C(O)C(=O)O (stereo not drawn) | 20 |  | 0 | 0 | 0 | 50 | 
4 | CN(C)C[C@H]1C[C@@H](CN(C)C)SS1.O=C(O)C(=O)O | 100 |  | 0 | 30 | 0 | 5 | 20
5 | CN(C)CC1CCC(CN(C)C)SS1.O=C(O)C(=O)O (stereo not drawn) | 100 |  | 0 | 0 | 0 | 0 | 
6 | O=C(O)C(=O)O.O=[N+]([O-])c1cccc2c1SSC2 | 100 |  | 10 | 30 | 95 | 80 | 
7 | CC(C)C1CSSC1 | 50 |  | 20 | 20 | 0 | 0 | 
8 | CN(C)CCC1CCSS1.O=C(O)C(=O)O (stereo not drawn) | 100 | 23.2 | 100 | 0 | 100 | 20 | 126
9 | CN(C)CCC1CSSC1.O=C(O)C(=O)O | 100 | 28.1 | 100 | 40 | 95 | 100 | 
10 | CN(C)CCCC1CSSC1.O=C(O)C(=O)O | 100 |  | 60 | 0 | 40 | 10 | 
11 | CN(C)CCCCC1CSSC1.O=C(O)C(=O)O | 100 |  | 0 | 0 | 75 | 20 | 
12 | CC1CC(CN(C)C)SS1.O=C(O)C(=O)O (stereo not drawn) | 100 |  | 80 | 20 | 0 | 95 | 
13 | CC1CSSC1CN(C)C.O=C(O)C(=O)O (stereo not drawn) | 100 | 50 | 80 | 0 | 0 | 75 | 209
14 | CN(C)CC1(C)CSSC1.O=C(O)C(=O)O | 90 |  | 70 | 40 | 100 | 100 | 
15 | O=C(O)C(=O)O.c1ccc(C2CSSC2)nc1 | 100 |  | 10 | 0 | 100 | 70 | 
16 | CN1CCCCC1C1CSSC1.O=C(O)C(=O)O (stereo not drawn) | 100 |  | 70 | 10 | 95 | 100 | 
17 | CN(C)NC1CSSC1.O=C(O)C(=O)O | 100 | 36.2 | 100 | 0 | 25 | 45 | 
18 | CN(C)N(C)C1CSSC1.O=C(O)C(=O)O | 100 | 15 | 100 | 0 | 100 | 60 | 
19 | CN(C)C[C@H]1C[C@H](CN(C)C)SS1.O=C(O)C(=O)O (relative stereo) | 90 |  | 0 | 0 | 0 | 20 | 116
20 | CN(C)C1CSSC1.O=C(O)C(=O)O [NEREISTOXIN HYDROGEN OXALATE] | 50 | 1.7 | 100 | 30 | 100 | 100 | 603
